Data published in PubChem BioAssay (NCI).
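Protocol summary: plate cells (96-well), add compound at 5 concentrations, incubate 48 h, interpolate endpoints linearly. TGI marks complete inhibition of growth.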

How the values were obtained:
Experiment in all cases: NCI anticancer screen, dose series, 48 h
A549 NSCLC = tested on: A549 NSCLC
COLO 205 colon = tested on: COLO 205 colon
HOP-62 NSCLC = tested on: HOP-62 NSCLC
LXFL 529 NSCLC = tested on: LXFL 529 NSCLC
M19-MEL melanoma = tested on: M19-MEL melanoma
MDA-MB-435 = tested on: MDA-MB-435
PC-3 prostate = tested on: PC-3 prostate
SNB-75 CNS = tested on: SNB-75 CNS
HL-60(TB) leukemia = tested on: HL-60(TB) leukemia
SF-539 CNS = tested on: SF-539 CNS

Row | Structure (SMILES) | TGI (A549 NSCLC) | TGI (COLO 205 colon) | TGI (HOP-62 NSCLC) | TGI (LXFL 529 NSCLC) | TGI (M19-MEL melanoma) | TGI (MDA-MB-435) | TGI (PC-3 prostate) | TGI (SNB-75 CNS) | TGI (HL-60(TB) leukemia) | TGI (SF-539 CNS)
1 | BrC(Br)=C1C(=C(Br)Br)C(Br)C1Br (centres undefined) | 3 µM | 2.59 µM | 2.88 µM | 1.85 µM | 1.99 µM | 2.82 µM | 5.42 µM | 5.62 µM |  | 
2 | Cc1c2ccn(O)cc2c(C)c2c1nc1ccccc12 | > 100 µM | > 100 µM | 27.5 µM | > 100 µM | > 100 µM | > 100 µM | 30.2 µM | 21.3 µM | 38.3 µM | 11 µM
3 | O=C1C(=O)N(c2ccc(Cl)cc2)C(=O)C(=O)C1c1nc2ccccc2o1 | > 100 µM | > 100 µM | > 100 µM | > 100 µM | > 100 µM |  |  | > 100 µM | > 100 µM | > 100 µM
4 | CN1CN(C2OC(CO)C(O)C2O)c2nc(N)[nH]c(=O)c21 (centres undefined) | > 100 µM | > 100 µM | > 100 µM | > 100 µM | > 100 µM |  |  | > 100 µM | > 100 µM | > 100 µM
